Data as given in patent US11685761B2, “Cyclic di-nucleotide compounds as sting agonists” (Merck Sharp & Dohme Corp., priority 2017, dated 2023).
Read-outs that look alike come from different tables or passages of the source.

What was measured:
full-length HAQ STING = molecular target: T1, full-length HAQ STING (Homo sapiens, UniProt Q86WV6, G230A/H232R/R293Q/R71H); experiment: 3H-cGAMP filtration binding assay (HAQ STING); details: competition with tritiated cGAMP ligand; T. ni cell membranes overexpressing full-length HAQ STING
T1 construct: made in house; host or cells: Trichoplusia ni (Hi-Five) insect cells, baculovirus generated in Sf21; crude membranes
T1 sequence (Q86WV6 with tags, fused parts or gaps R71H/G230A/H232R/R293Q): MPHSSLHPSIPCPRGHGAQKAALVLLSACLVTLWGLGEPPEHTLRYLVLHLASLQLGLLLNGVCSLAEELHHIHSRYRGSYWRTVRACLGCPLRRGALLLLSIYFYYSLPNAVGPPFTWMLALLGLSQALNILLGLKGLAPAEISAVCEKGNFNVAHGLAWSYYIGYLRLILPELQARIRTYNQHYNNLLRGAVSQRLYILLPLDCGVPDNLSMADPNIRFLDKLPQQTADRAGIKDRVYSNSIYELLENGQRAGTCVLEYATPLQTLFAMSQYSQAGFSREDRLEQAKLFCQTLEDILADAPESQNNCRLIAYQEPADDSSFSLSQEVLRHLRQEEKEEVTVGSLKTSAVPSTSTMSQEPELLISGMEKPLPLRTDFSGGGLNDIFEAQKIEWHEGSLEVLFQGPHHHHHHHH
Source text: The ability of compounds to bind STING is quantified by the ability to compete with tritiated cGAMP ligand for human STING receptor membrane using a radioactive filter-binding assay. The binding assay employs STING receptor obtained from Hi-Five cell membranes overexpressing full-length HAQ STING prepared in-house and tritiated cGAMP ligand also purified in-house.
The ability of compounds to bind STING is quantified by their ability to compete with tritiated cGAMP ligand for human STING receptor membrane using a radioactive filter-binding assay. The binding assay employs STING receptor obtained from Trichoplusia ni cell membranes (T. ni; Expression Systems, cat #94-002F, www.expressionsystems.com) overexpressing full-length HAQ STING and tritiated cGAMP ligand.
The basic HAQ STING filtration assay protocol is as follows:
The compounds were serially titrated by the Hamilton STARPlus CORE in a 96-well plate (Greiner, #651201) using a 1:3 ten-point dose response format. […] 148 uL of prepared membrane was then manually added to each well of a 96-well deep-well polypropylene plate (Fisher Scientific, #12-566-121). Following membrane addition, 2 uL of either titrated test compound, DMSO control (Sigma #276855), or cold cGAMP control was added to the appropriate wells using a BIOMEK FX. Compound and membrane then preincubated for 60 min at RT to allow compound binding to equilibrate. Following equilibration, 8 nM of [^3H] c-GAMP ligand was prepared by diluting into assay buffer, and 50 uL of this working stock was then manually added to each well of the assay plate. Plates were then incubated at RT for 60 min, and the contents of each assay plate were then filtered through a 96-well GF/B filter plate (PerkinElmer, #6005250) using a TOMTEC MACH III Cell Harvester equipped with 20 mM HEPES buffer (Fisher Scientific, #BP299500). The filter plates were then dried at 55° C. for 30 min using a pressurized oven before 30 uL of ULTIMA GOLD F scintillate was added to each well. Tritium levels for each reaction well were then measured using a PerkinElmer TopCount plate reader.
After normalization to controls, the percent activity for each compound concentration was calculated by measuring the amount of remaining radioactivity. The plot of percent activity versus the log of compound concentration was fit with a 4-parameter dose response equation to calculate EC50 values.

[1] = test system: IFN-β secretion from THP1 cells; experiment: IFN-β secretion in THP1 cell culture (5 h); type: cell-based, human; details: for activation at 30 µM: Homo sapiens, read-out: % Effect at 30 μM relative to 2′3′-cGAMP
Protocol: The ability of compounds to stimulate the secretion of interferon-beta from THP1 cells was measured using a human IFN-β AlphaLISA kit (Perkin Elmer, Cat. No. AL265F). The basic protocol is as follows:
The cell viability and count was ascertained using a Beckman Coulter V-Cell XR cell counter. The cell suspension was centrifuged at 200×g for 5 min at RT. Cells were resuspended to a density of 0.8×10^6/mL in 37° C. assay medium. Subsequent liquid transfers were performed using either a Matrix electronic multichannel pipette or an Agilent Bravo Automated Liquid Handling Platform.
The assay was started by dispensing 40 μL of the previously prepared cell suspension into the wells of the plate containing compounds. After 5 h incubation at 37° C., 5% CO2 in a humidified atmosphere, the plate of cells and compounds was centrifuged at 200×g for 5 min at RT. […] To these supernatant-containing wells was added 10 μL of 5× Anti-Analyte Acceptor beads (50 μg/mL of AlphaLISA HiBlock Buffer) and incubated for 30 min at RT while shaking on an orbital plate shaker. To each well was added 10 μL of 5× Biotinylated Antibody Anti-analyte (5 nM in AlphaLISA HiBlock Buffer) and incubated on an orbital plate shaker for 60 min at RT or overnight at 4° C. To each well was added 25 μL of 2× SA-Donor beads (80 μg/mL in AlphaLISA HiBlock Buffer) and incubated for 30-45 min at RT in the dark while shaking on an orbital plate shaker. The plate was then read on a Perkin Elmer Envision (λex680 nm, λem=570 nm). The percent effect of the AlphaLISA signal at each compound concentration was calculated based on 30 uM cGAMP positive controls and 0.3% DMSO negative controls. The plot of percent effect versus the log of compound concentration was fit with a 4-parameter concentration response equation to calculate EC50 values.
Compounds of the disclosure were evaluated for IFN-β secretion in THP1 cell culture as described above.

[2] = THP-1, 5 h, THP1 cells, 5 h incubation, compound at 30 μM, 30 uM cGAMP = 100%
[3] = THP1 cells, 5 h incubation, compound at 30 μM, 30 uM cGAMP = 100%

Row | SMILES | EC50 (full-length HAQ STING) [nM] | activation at 30 µM [1, 2] [%] | % Effect at 30 μM relative to 2′3′-cGAMP [1, 3] [%] | % Effect at 30 μM relative to 2′3′-cGAMP [1] [%] | activation at 30 µM ([1]; THP-1, THP1 cells, 5 h incubation, compound at 30 μM, 30 uM cGAMP = 100%) [%]
1 | Nc1ncnn2c([C@H]3C[C@@H]4O[P@](=O)(S)OC[C@H]5O[C@@H](n6ccc(=O)n7ccnc67)[C@H](O[P@](=O)(S)OC[C@H]4O3)[C@@H]5O)cnc12 (single isomer, unassigned) [Example 8] | 23 | 128 | – | – | –
2 | Nc1ncnn2c([C@H]3C[C@@H]4O[P@](=O)(S)OC[C@H]5O[C@@H](n6ccc(=O)n7ccnc67)[C@H](O[P@@](=O)(S)OC[C@H]4O3)[C@@H]5O)cnc12 (single isomer, unassigned) [Example 9] | 23 | 80 | – | – | –
3 | Nc1ncnc2c1ncn2[C@@H]1S[C@@H]2CO[P@@](=O)(S)O[C@@H]3[C@H](O)[C@@H](CO[P@@](=O)(S)O[C@H]2[C@H]1O)O[C@H]3n1ccc(=O)n2ccnc12 (single isomer, unassigned) [Example 10] | 3 | 183 | – | – | –
4 | Nc1ncnc2c1ncn2[C@@H]1S[C@@H]2CO[P@](=O)(S)O[C@@H]3[C@H](O)[C@@H](CO[P@@](=O)(S)O[C@H]2[C@H]1O)O[C@H]3n1ccc(=O)n2ccnc12 (single isomer, unassigned) [Example 11] | 1740 | 5 | – | – | –
5 | Nc1ncnc2c1ncn2[C@@H]1S[C@@H]2CO[P@@](=O)(S)O[C@@H]3[C@H](O)[C@@H](CO[P@](=O)(S)O[C@H]2[C@H]1O)O[C@H]3n1ccc(=O)n2ccnc12 (single isomer, unassigned) [Example 12] | 156 | 123 | – | – | –
6 | Nc1ncnc2c1nnn2[C@@H]1O[C@@H]2COP(=O)(S)O[C@@H]3[C@H](F)[C@@H](COP(=O)(S)O[C@H]2[C@@H]1F)O[C@H]3n1cnc2c(=O)n3cc[nH]c3nc21 (single isomer, unassigned) [Example 23] | 28 | – | – | – | –
7 | Nc1ncnc2c1nnn2[C@@H]1O[C@@H]2COP(=O)(S)O[C@@H]3[C@H](F)[C@@H](COP(=O)(S)O[C@H]2[C@@H]1F)O[C@H]3n1cnc2c(=O)n3cc[nH]c3nc21 (single isomer, unassigned) [Example 24] | 411 | – | – | – | –
8 | Nc1ncnc2c1ncn2[C@@H]1O[C@@]23CO[C@@H]1[C@@H]2OP(=O)(S)OC[C@H]1O[C@@H](n2cnc4c(=O)n5cc[nH]c5nc42)[C@H](OP(=O)(S)OC3)[C@@H]1F (single isomer, unassigned) [Example 25] | 1 | – | 131 | – | –
9 | Nc1ncnc2c1ncn2[C@@H]1O[C@@]23CO[C@@H]1[C@@H]2OP(=O)(S)OC[C@H]1O[C@@H](n2cnc4c(=O)n5cc[nH]c5nc42)[C@H](OP(=O)(S)OC3)[C@@H]1F (single isomer, unassigned) [Example 26] | 19 | – | 153 | – | –
10 | Nc1ncnc2c1ncn2[C@@H]1O[C@@]23CO[C@@H]1[C@@H]2OP(=O)(S)OC[C@H]1O[C@@H](n2cnc4c(=O)n5cc[nH]c5nc42)[C@H](OP(=O)(S)OC3)[C@@H]1F (single isomer, unassigned) [Example 27] | 61 | – | 143 | – | –
11 | Nc1nc2c(ncn2[C@@H]2O[C@@H]3COP(=O)(S)O[C@H]4[C@@H](O)[C@H](n5cnc6c(=O)[nH]c7nccn7c65)O[C@@H]4COP(=O)(S)O[C@@H]2[C@@H]3F)c(=O)[nH]1 (single isomer, unassigned) [Example 32] | 14 | – | 141 | – | –
12 | Nc1nc2c(ncn2[C@@H]2O[C@@H]3COP(=O)(S)O[C@H]4[C@@H](O)[C@H](n5cnc6c(=O)[nH]c7nccn7c65)O[C@@H]4COP(=O)(S)O[C@@H]2[C@@H]3F)c(=O)[nH]1 (single isomer, unassigned) [Example 33] | 90 | – | 83 | – | –
13 | Nc1nc2c(ncn2[C@@H]2O[C@@H]3COP(=O)(S)O[C@H]4C[C@H](n5ccc6c(=O)[nH]cnc65)O[C@@H]4COP(=O)(S)O[C@@H]2[C@@H]3F)c(=O)[nH]1 (single isomer, unassigned) [Example 35] | 11 | – | – | 98 | –
14 | Nc1nc2c(ncn2[C@@H]2O[C@@H]3COP(=O)(S)O[C@H]4C[C@H](n5ccc6c(=O)[nH]cnc65)O[C@@H]4COP(=O)(S)O[C@@H]2[C@@H]3F)c(=O)[nH]1 (single isomer, unassigned) [Example 36] | 2 | 94 | – | – | –
15 | Nc1nc2c(ncn2[C@@H]2O[C@@H]3COP(=O)(S)O[C@H]4C[C@H](n5ccc6c(=O)[nH]cnc65)O[C@@H]4COP(=O)(S)O[C@@H]2C3)c(=O)[nH]1 (single isomer, unassigned) [Example 37] | 49 | 102 | – | – | –
16 | Nc1nc2c(ncn2[C@@H]2O[C@@H]3COP(=O)(S)O[C@H]4[C@H](F)[C@H](n5ccc6c(=O)[nH]cnc65)O[C@@H]4COP(=O)(S)O[C@@H]2[C@@H]3F)c(=O)[nH]1 (single isomer, unassigned) [Example 39] | 1 | 166 | – | – | –
17 | Nc1ncnc2c1ncn2[C@@H]1O[C@@H]2COP(=O)(S)O[C@H]3[C@H](F)[C@H](n4ccc5c(=O)[nH]cnc54)O[C@@H]3COP(=O)(S)O[C@@H]1C2 (single isomer, unassigned) [Example 47] | 460 | – | 13 | – | –
18 | Nc1ncnc2c1ncn2[C@@H]1O[C@@H]2COP(=O)(S)O[C@@H]3[C@@H](F)[C@@H](COP(=O)(S)O[C@H]2[C@@H]1F)O[C@H]3n1cnc2c(=O)[nH]ccc21 (stereo partly drawn) [Example 21, 1-[(5R,7R,8S,12aR,14R,15S,15aR,16S)-14-(6-amino-9H-purin-9-yl)-15,16-difluoro-2,10-dioxido-2,10-disulfanyloctahydro-12H-5,8-methanofuro[3,2-1][1,3,6,9,11,2,10]pentaoxadiphosphacyclotetradecin-7-yl]-1,5-dihydro-4H-imidazo[4,5-c]pyridin-4-one] | – | – | – | – | 143
19 | Nc1ncnc2c1ccn2[C@@H]1O[C@@H]2COP(=O)(S)O[C@@H]3C[C@@H](COP(=O)(S)O[C@H]2[C@@H]1F)O[C@H]3n1cnc2c(=O)[nH]ccc21 (stereo partly drawn) [Example 22, 1-[(5S,7R,8R,12aR,14R,15S,15aR)-14-(4-amino-7H-pyrrolo[2,3-d]pyrimidin-7-yl)-15-fluoro-2,10-dioxido-2,10-disulfanyloctahydro-12H-5,8-methanofuro[3,2-l][1,3,6,9,11,2,10]pentaoxadiphosphacyclotetradecin-7-yl]-1,5-dihydro-4H-imidazo[4,5-c]pyridin-4-one] | – | 100 | – | – | –
